What was measured:
Histamine H3 receptor [1] = biological target: Histamine H3 receptor (Homo sapiens, UniProt Q9Y5N1); test: Binding affinity to human histamine H3 receptor
Histamine H3 receptor [2] = biological target: Histamine H3 receptor (Rattus norvegicus, UniProt Q9QYN8); test: Binding affinity to rat histamine H3 receptor
[3] = Half life in mouse liver microsomes; assay type: ADME
[4] = Half life in rat liver microsomes; assay type: ADME
[5] = Half life in dog liver microsomes; assay type: ADME, Canis lupus familiaris
[6] = Half life in monkey liver microsomes; assay type: ADME, Macaca mulatta; details: rhesus monkey
[7] = Half life in human liver microsomes; assay type: ADME
Cytochrome P450 1A2 = biological target: T1, Cytochrome P450 1A2 (Homo sapiens, UniProt P05177); test: Inhibition of CYP1A2 (unknown origin); assay type: ADME
T1 sequence (P05177 whole entry): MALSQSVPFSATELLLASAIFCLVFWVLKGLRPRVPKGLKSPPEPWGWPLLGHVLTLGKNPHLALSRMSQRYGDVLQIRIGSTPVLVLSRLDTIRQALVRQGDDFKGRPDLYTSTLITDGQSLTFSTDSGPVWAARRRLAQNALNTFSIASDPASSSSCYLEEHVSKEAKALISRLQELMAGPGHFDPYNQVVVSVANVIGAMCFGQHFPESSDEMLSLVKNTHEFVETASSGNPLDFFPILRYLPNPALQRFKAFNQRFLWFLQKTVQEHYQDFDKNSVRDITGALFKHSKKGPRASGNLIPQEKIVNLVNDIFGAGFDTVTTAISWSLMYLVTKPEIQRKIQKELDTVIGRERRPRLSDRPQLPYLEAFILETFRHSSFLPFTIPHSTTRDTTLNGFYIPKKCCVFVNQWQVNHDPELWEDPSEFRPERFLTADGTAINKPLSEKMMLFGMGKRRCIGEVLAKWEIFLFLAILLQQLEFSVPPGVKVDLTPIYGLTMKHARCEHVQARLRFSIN

Cytochrome P450 2C9 = Cytochrome P450 2C9 (Homo sapiens, UniProt P11712); test: Inhibition of CYP2C9 (unknown origin); assay type: ADME
Cytochrome P450 2C19 = Cytochrome P450 2C19 (Homo sapiens, UniProt P33261); test: Inhibition of CYP2C19 (unknown origin); assay type: ADME
Cytochrome P450 2D6 = Cytochrome P450 2D6 (Homo sapiens, UniProt P10635); test: Inhibition of CYP2D6 (unknown origin); assay type: ADME
Cytochrome P450 3A4 = Cytochrome P450 3A4 (Homo sapiens, UniProt P08684); test: Inhibition of CYP3A4 (unknown origin); assay type: ADME
[8] = Oral bioavailability in rat; assay type: ADME, organism-based; details: in vivo
[9] = Half life in iv dosed rat; assay type: ADME, organism-based; details: in vivo
[10] = Clearance in iv dosed rat; assay type: ADME, organism-based; details: in vivo

Chain of Histamine H3 receptor (Rattus norvegicus, UniProt Q9QYN8) (Q9QYN8 whole entry): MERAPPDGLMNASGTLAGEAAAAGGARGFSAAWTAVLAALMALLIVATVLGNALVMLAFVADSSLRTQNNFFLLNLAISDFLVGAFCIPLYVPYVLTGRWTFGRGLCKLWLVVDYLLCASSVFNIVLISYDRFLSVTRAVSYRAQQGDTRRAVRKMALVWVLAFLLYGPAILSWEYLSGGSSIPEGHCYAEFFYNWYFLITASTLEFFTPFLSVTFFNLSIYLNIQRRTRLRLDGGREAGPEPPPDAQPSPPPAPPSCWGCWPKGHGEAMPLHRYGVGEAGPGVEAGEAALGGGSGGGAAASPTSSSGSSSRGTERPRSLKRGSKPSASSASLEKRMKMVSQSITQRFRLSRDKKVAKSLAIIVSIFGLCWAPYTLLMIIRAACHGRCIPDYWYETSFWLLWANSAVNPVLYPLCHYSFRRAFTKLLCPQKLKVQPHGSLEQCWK
Chain of Histamine H3 receptor (Homo sapiens, UniProt Q9Y5N1) (Q9Y5N1 whole entry): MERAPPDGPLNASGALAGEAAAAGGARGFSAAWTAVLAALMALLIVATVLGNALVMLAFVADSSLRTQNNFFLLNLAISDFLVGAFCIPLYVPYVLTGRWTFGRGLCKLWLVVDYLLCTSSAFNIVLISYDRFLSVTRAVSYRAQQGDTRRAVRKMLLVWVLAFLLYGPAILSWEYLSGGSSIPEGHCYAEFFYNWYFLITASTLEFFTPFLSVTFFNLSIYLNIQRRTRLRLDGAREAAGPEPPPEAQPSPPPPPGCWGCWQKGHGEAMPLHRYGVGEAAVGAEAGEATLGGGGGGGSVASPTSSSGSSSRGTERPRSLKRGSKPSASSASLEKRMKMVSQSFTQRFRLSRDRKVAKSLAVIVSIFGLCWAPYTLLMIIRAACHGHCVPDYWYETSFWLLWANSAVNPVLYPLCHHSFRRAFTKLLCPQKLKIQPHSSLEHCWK
Chain of Cytochrome P450 2D6 (P10635 whole entry): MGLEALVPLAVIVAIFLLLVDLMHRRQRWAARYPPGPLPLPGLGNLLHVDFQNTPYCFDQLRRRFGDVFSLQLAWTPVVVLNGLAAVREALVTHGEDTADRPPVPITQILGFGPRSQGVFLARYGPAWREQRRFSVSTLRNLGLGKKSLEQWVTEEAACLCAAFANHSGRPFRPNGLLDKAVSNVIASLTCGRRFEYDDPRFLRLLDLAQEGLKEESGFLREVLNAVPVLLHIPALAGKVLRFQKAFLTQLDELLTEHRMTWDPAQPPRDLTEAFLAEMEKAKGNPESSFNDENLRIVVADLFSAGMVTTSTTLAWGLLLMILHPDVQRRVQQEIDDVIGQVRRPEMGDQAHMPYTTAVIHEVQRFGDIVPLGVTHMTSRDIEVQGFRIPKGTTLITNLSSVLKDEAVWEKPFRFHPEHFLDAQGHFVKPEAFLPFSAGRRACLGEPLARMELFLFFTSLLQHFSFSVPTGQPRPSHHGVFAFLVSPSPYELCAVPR
Chain of Cytochrome P450 2C9 (P11712 whole entry): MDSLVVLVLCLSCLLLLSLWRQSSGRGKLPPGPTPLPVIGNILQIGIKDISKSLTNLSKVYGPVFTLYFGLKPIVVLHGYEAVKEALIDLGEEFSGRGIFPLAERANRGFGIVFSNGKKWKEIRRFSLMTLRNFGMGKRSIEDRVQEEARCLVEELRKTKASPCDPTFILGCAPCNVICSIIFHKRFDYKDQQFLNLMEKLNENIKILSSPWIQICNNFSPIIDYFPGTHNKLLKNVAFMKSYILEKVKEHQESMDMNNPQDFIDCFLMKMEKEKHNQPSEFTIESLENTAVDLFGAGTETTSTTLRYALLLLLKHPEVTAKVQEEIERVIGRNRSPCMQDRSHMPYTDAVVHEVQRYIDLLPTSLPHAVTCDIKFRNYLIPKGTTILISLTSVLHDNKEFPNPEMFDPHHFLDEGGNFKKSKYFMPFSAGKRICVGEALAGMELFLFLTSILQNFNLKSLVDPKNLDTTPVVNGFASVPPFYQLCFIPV
Chain of Cytochrome P450 3A4 (P08684 whole entry): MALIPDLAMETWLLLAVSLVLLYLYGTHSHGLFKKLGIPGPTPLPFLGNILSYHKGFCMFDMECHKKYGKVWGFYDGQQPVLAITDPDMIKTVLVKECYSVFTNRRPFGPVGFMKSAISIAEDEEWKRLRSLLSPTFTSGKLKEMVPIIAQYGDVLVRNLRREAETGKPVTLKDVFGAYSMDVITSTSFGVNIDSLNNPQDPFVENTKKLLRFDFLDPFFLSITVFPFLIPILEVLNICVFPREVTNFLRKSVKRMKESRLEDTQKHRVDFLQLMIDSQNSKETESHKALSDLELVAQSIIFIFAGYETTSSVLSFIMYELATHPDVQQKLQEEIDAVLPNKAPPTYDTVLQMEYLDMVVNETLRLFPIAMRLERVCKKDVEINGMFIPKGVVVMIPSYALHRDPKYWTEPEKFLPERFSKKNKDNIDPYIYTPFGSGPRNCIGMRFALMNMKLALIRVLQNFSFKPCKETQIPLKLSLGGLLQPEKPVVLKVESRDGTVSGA
Chain of Cytochrome P450 2C19 (P33261 whole entry): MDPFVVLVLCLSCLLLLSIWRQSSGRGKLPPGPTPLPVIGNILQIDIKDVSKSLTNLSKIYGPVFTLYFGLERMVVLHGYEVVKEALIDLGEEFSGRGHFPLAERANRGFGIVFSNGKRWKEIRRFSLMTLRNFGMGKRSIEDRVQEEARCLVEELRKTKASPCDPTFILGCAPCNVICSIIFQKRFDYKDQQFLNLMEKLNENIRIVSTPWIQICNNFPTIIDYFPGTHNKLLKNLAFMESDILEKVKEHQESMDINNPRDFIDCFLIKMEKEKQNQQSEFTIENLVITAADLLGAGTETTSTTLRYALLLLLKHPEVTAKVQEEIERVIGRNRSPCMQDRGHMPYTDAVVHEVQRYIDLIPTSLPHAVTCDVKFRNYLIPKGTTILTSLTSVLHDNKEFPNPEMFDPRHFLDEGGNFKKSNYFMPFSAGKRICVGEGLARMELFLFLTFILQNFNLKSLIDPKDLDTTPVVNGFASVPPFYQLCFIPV

Row | SMILES | Ki (Histamine H3 receptor [1]) [nM] | Ki (Histamine H3 receptor [2]) [nM] | half-life [3] [min] | half-life [4] [min] | half-life [5] [min] | half-life [6] [min] | half-life [7] [min] | IC50 (Cytochrome P450 1A2) [nM] | IC50 (Cytochrome P450 2C9) [nM] | IC50 (Cytochrome P450 2C19) [nM] | IC50 (Cytochrome P450 2D6) [nM] | IC50 (Cytochrome P450 3A4) [nM] | bioavailability [8] [%] | half-life [9] [min] | clearance [10] [mL/min/kg]
1 | Cc1cc(OCCCN2CCC[C@@H]2C)ccc1C1=NNC(=O)C2CC12 (mixture of isomers) | 49 | 103 |  |  |  |  |  |  |  |  |  |  |  |  | 
2 | C[C@H](COc1ccc(C2=NNC(=O)C3CC23)cc1)CN1CCC[C@H]1C (mixture of isomers) | 2.3 | 9.8 | > 40 | > 40 | > 40 | > 40 | > 40 | > 30000 | > 30000 | > 30000 | > 30000 | > 30000 | > 25 | 108 | 19
3 | Cc1cc(OCCCN2CCCCC2)ccc1C1=NNC(=O)C2CC12 (racemic) | 39 | 139 |  |  |  |  |  |  |  |  |  |  |  |  | 
4 | Cc1cc(OCCCN2CCC[C@H]2C)ccc1C1=NNC(=O)C2CC12 (mixture of isomers) | 7 | 66 |  |  |  |  |  |  |  |  |  |  |  |  | 

Reference: ChEMBL document CHEMBL3414489, “3,4-Diaza-bicyclo[4.1.0]hept-4-en-2-one phenoxypropylamine analogs of irdabisant (CEP-26401) as potent histamine-3 receptor inverse agonists with robust wake-promoting activity” (Eur J Med Chem, 2015)
